Data reported in US11680298B2, “Method of identifying risk of cancer and therapeutic options” (Agency for Science, Technology and Research, priority 2016, dated 2023).
Entries after “also recorded” stand apart in the source; their conditions may differ.

Assays:
JAK2 = target: T1, JAK2 (Homo sapiens, UniProt O60674); test: Western blot of phospho-JAK2 in breast cancer cells and patient-derived tumourspheres; format: cell-based; settings: 6 hr pacritinib treatment, western blot
T1 construct: endogenous in cells; host or cells: MB468 and MB231 cells; PDX-derived tumourspheres
T1 sequence (O60674 whole entry): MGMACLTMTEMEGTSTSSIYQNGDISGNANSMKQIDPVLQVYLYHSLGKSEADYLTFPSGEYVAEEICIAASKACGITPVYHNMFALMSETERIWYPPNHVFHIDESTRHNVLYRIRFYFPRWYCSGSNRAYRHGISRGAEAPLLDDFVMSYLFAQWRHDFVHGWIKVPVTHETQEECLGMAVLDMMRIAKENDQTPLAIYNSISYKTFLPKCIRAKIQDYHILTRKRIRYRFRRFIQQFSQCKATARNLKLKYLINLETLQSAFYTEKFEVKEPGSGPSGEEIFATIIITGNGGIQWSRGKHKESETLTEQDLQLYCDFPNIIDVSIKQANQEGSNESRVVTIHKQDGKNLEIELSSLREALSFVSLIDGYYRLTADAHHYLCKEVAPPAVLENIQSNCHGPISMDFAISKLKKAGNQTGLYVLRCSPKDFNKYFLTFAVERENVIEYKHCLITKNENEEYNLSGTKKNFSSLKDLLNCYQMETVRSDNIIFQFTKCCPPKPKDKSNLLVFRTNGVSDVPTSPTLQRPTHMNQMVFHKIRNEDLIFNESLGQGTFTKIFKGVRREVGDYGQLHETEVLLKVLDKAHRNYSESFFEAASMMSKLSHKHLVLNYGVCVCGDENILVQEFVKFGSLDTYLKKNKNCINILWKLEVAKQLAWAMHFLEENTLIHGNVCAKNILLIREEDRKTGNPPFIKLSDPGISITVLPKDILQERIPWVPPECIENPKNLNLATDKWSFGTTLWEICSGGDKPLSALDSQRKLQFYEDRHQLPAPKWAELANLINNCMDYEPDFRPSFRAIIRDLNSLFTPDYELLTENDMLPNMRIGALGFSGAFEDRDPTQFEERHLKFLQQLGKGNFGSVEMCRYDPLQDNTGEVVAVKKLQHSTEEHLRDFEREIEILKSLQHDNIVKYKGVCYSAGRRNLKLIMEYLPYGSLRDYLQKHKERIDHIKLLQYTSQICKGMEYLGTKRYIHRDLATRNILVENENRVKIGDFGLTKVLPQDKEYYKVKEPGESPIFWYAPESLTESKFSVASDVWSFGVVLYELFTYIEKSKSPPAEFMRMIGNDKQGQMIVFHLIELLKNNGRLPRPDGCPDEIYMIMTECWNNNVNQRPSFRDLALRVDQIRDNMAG
From the text: (§1) All immunoblots shown in this specification represent at least two independent experiments. In brief, cells were washed with PBS and lysed in RIPA buffer supplemented with protease and phosphatase inhibitors and further sonicated using an XL2000 Microson Ultrasonice Processor (Misonix). Equal amounts of protein extract were separated on SDS-polyacrylamided gels and transferred to PVDF membranes. Membranes were further blocked with 5% milk or BSA, and then probed with the following antibodies: anti-IRAK1 was purchased from Santa Cruz Biotechnology (Santa Cruz, Calif.; sc-7883), anti-phospho-IRAK1 (T209) was purchased from Assay Biotech (Sunnyvale, Calif.; A1074), anti-JAK2 (Danvers, Mass.; #3230) and anti-phospho-JAK2 ([…]) (Danvers, Mass.: #3774) were purchased from Cell Signaling Technology, anti-actin was purchased from Sigma Aldrich CA; A5441). For protein extraction of xenograft tumours, snap frozen samples were resuspended in RIPA buffer supplemented with protease and phosphatase inhibitors and homogenized with QIAGEN TissueLyzer II as described by the manufacturer, followed by immunoblotting as described above.

MB468 tumourspheres = test: Mammosphere (tumoursphere) formation assay, MB468; format: cell-based; settings: MB468 cell line
Description: (§2) Mammosphere Formation Assay PDX-derived tumoursphere cells were trypsinized and passed through 40 μm cell strainer to achieve single cell suspensions. 3×10^4 cells were seeded in 6-well ultra-low attachment plates (Corning, N.Y.; CLS3471) in serum-free DMEM/F12 supplemented with N2 and B27 (Gibco, Grand Island, N.Y.), 20 ng/ml epidermal growth factor (MACS, Auburn, Calif.), 20 ng/ml basic fibroblast growth factor (MACS, Auburn, Calif.), 0.2 μM Thiazovivin ([…] Technologies, Vancouver, BC) and penicillin/streptomycin (Gibco, Carlsbad, Calif.). For breast cancer cell lines and MCF10A cell line, 3×10^4 cells were seeded in 6-well ultra-low attachment plates in Mammocult medium (Stem Cell Technologies, Vancouver, BC, Canada), supplemented with fresh hydrocortisone (0.5 μg/ml) and heparin (1:500). Mammospheres were maintained at 37° C. with 5% CO2 and topped up with medium every 3 days. After 7-9 days, mammospheres were stained with INT (2-(4-iodophenyl)-3-(4-nitrophenyl)-5-phenyl-2H-tetrazolium chloride, Sigma-Aldrich) and quantified. Imaging and quantification were done using GelCount apparatus and associated software (Oxford Optronix, Abingdon, UK). […] Cell Proliferation Assay

MB231 tumourspheres = test: Mammosphere (tumoursphere) formation assay, MB231; format: cell-based; settings: MB231 cell line
Description: as §2

[1] = test system: ER positive and ER negative breast cancer cell lines tumourspheres; test: Tumoursphere growth in breast cancer cell lines with or without 1q21.3 amplification; format: cell-based; settings: increasing dose of pacritinib
Description: (§3) For this purpose, the 1q21.3 gene amplification in a series of breast cancer cell lines was profiled using ddPCR (FIG. 6A). Of note, 1q21.3 status in these cell lines was in general correlated with phospho-IRAK1 and expression of S100A8/9 (FIG. 6B and FIG. 14A), but not with phospho-JAK2 status (FIG. 6B).
(§4) Mammosphere Formation Assay PDX-derived tumoursphere cells were trypsinized and passed through 40 μm cell strainer to achieve single cell suspensions. 3×10^4 cells were seeded in 6-well ultra-low attachment plates (Corning, N.Y.; CLS3471) in serum-free DMEM/F12 supplemented with N2 and B27 (Gibco, Grand Island, N.Y.), 20 ng/ml epidermal growth factor (MACS, Auburn, Calif.), 20 ng/ml basic fibroblast growth factor (MACS, Auburn, Calif.), 0.2 μM Thiazovivin ([…] Technologies, Vancouver, BC) and penicillin/streptomycin (Gibco, Carlsbad, Calif.). For breast cancer cell lines and MCF10A cell line, 3×10^4 cells were seeded in 6-well ultra-low attachment plates in Mammocult medium (Stem Cell Technologies, Vancouver, BC, Canada), supplemented with fresh hydrocortisone (0.5 μg/ml) and heparin (1:500). […] After 7-9 days, mammospheres were stained with INT (2-(4-iodophenyl)-3-(4-nitrophenyl)-5-phenyl-2H-tetrazolium chloride, Sigma-Aldrich) and quantified. Imaging and quantification were done using GelCount apparatus and associated software (Oxford Optronix, Abingdon, UK). […]

HCC1937 = test: Tumoursphere growth, HCC1937; format: cell-based; settings: HCC1937, negative for 1q21.3 amplification, high phospho-IRAK1 and phospho-JAK2
Description: as §3, §4

S100A7/8/9 [2] = test: Real-time PCR analysis of S100A7/8/9 gene expression in cells; format: cell-based, human
Description: Total RNA was isolated using TRIzol® reagent (Life Technologies, Carlsbad, Calif.; 15596026) and purified with Direct-zolTM RNA MiniPrep (Zymo Research, Irvine, Calif.; […]). Reverse transcription and quantitative PCR assays were performed using High-Capacity cDNA Reverse Transcription Kit (Applied Biosystems, Carlsbad, Calif.; 4368813) and KAPA SyBr Fast qPCR kit (KAPA Biosystems, Wilmington, Mass.; KK4601). For quantification of mRNA levels, GAPDH level was used as an internal control. All reactions were analysed in an Applied Biosystems PRISM 7500 Fast Real-Time PCR system in 96-well plate format. For RNA extraction of xenograft tumours, snap frozen samples were resuspended in TRIzol® reagent and homogenized with QIAGEN TissueLyzer II as described by the manufacturer, followed by purification with Direct-zolITM RNA MiniPrep.

HCC70 xenograft tumours = test: In vivo pacritinib sensitivity test, HCC70 orthotopic xenograft; set-up: species or system NOD-SCID mice; settings: 1q21.3-amplified HCC70; 50, 100 and 150 mg/kg pacritinib daily by oral gavage for 21 days
MB231 tumours = test: In vivo pacritinib sensitivity test, MB231 orthotopic xenograft; set-up: species or system NOD-SCID mice; settings: 1q21.3 non-amplified MB231; 50, 100 and 150 mg/kg pacritinib daily by oral gavage for 21 days
S100A7/8/9 [3] = test: Real time RT-PCR of S100A7/8/9 expression in HCC70 xenograft; format: in vivo, NOD-SCID mice; settings: HCC70 xenograft (n=4) treated with pacritinib
Description: (§5) Mice were then dosed daily by oral gavage for 21 days. Tumour growth was monitored for 1 month.
Total RNA was isolated using TRIzol® reagent (Life Technologies, Carlsbad, Calif.; 15596026) and purified with Direct-zol™ RNA MiniPrep (Zymo Research, Irvine, Calif.; R2050). Reverse transcription and quantitative PCR assays were performed using High-Capacity cDNA Reverse Transcription Kit (Applied Biosystems, Carlsbad, Calif.; 4368813) and KAPA SyBr Fast qPCR kit (KAPA Biosystems, Wilmington, Mass.; KK4601). For quantification of mRNA levels, GAPDH level was used as an internal control. All reactions were analysed in an Applied Biosystems PRISM 7500 Fast Real-Time PCR system in 96-well plate format. For RNA extraction of xenograft tumours, snap frozen samples were resuspended in TRIzol® reagent and homogenized with QIAGEN TissueLyzer II as described by the manufacturer, followed by purification with Direct-zolI™ RNA MiniPrep.

IRAK1 = IRAK1 (Homo sapiens, UniProt P51617); test: Western blot of phospho-IRAK1 in HCC70 xenograft; format: in vivo, NOD-SCID mice; set-up: For protein extraction of xenograft tumours, snap frozen samples were resuspended in RIPA buffer; from tissue; host or cells: HCC70 xenograft tumour from NOD-SCID mice; settings: HCC70 xenograft (n=4) treated with pacritinib
IRAK1, sequence (P51617 whole entry): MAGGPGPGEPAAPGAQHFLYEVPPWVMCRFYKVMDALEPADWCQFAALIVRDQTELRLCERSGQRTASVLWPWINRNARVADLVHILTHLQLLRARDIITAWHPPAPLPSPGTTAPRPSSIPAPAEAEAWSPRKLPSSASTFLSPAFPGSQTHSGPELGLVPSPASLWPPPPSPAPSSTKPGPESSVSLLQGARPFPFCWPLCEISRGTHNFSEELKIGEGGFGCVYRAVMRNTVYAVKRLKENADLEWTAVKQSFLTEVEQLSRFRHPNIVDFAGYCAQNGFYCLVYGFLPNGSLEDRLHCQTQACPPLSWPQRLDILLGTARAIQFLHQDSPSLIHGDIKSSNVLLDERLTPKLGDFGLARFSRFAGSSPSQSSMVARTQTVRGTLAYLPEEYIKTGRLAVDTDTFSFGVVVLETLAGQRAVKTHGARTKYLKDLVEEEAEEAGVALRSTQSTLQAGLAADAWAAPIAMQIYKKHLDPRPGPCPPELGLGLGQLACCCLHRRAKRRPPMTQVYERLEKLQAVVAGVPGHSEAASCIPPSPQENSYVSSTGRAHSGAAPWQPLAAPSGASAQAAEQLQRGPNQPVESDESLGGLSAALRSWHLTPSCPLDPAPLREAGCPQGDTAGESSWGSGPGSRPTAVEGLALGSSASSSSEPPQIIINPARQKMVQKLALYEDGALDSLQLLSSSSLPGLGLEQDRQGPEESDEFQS
Description: as §5, §1

## C1=C/COCc2cc(ccc2OCCN2CCCC2)Nc2nccc(n2)-c2cccc(c2)COC/1 [pacritinib]
JAK2; MB231 cells
  phosphorylation of JAK2: inhibition of phospho-IRAK1 and phospho-JAK2 within 6 hr; also recorded: inhibited phosphorylation of JAK2
JAK2; MB468 cells
  phosphorylation of JAK2: inhibition of phospho-IRAK1 and phospho-JAK2 within 6 hr; also recorded: effectively block the phosphorylation of both IRAK1 and JAK2 as early as 6 hours in a dose-dependent manner
MB468 tumourspheres
  number of tumourspheres: strong tumoursphere inhibitory effect
MB231 tumourspheres
  number of tumourspheres: little effect
[1]
  tumoursphere growth, 1q21.3 amplified versus non-amplified cell lines: preferential growth inhibition of breast cancer cells containing amplified S100A8 and/or S100A9 genes; also recorded: more effective in impairing tumoursphere growth in cancer cell lines positive for 1q21.3 amplification compared to negative cell lines; also recorded: more sensitive to pacritinib treatment compared to cancer cells without 1q21.3 amplification
HCC1937
  sensitivity to pacritinib: sensitive to pacritinib treatment
S100A7/8/9 [2]; MB468 cells, 24 hr pacritinib treatment
  expression of S100A7/8/9: reduced the expression of S100A7/8/9 in MB468 cells in a dose-dependent manner
S100A7/8/9 [2]; across the cell models tested
  S100A7 expression: seemed to be cell specific
  expressions of S100A8 and S100A9: consistently reduced
S100A7/8/9 [2]; patient-derived tumoursphere cells, 24 hr, pacritinib 2.5 μM
  expression of S100A7/8/9: reduced expression of S100A7/8/9
HCC70 xenograft tumours
  tumour growth: substantial inhibition in tumour growth
MB231 tumours
  tumour growth: no obvious effect
S100A7/8/9 [3]
  S100A7/8/9 expression in xenograft: downregulation
IRAK1
  phospho-IRAK1 level in xenograft: downregulation of phospho-IRAK1
